Assay results: ChEMBL document CHEMBL6083212, “The synthesis and bioactivities of ROCK2 inhibitors with 1,2-dithiolan-3-yl motif” (RSC Med Chem, 2024)
The source made the active and inactive calls. The calls are words filed in the database; no cut-off is given here.

Columns and labels:
[1] = Cytotoxicity against mouse BV-2 cells by MTT assay; type: toxicity, cell-based; details: read-out: TC50 (the source's name)
[2] = Antioxidant activity assessed as DPPH radical scavenging activity at 1 mM incubated for 30 mins by absorbance based analysis; type: functional
BV-2 [3] = experiment: Antiinflammatory activity in LPS-induced mouse BV-2 cells assessed as inhibition of TNF-alpha production at […] incubated for 24 hrs by ELISA analysis; type: functional; set-up: dose or concentration left out as unconfirmed
BV-2 [4] = experiment: Antiinflammatory activity in LPS-induced mouse BV-2 cells assessed as inhibition of IL-6 production at […] incubated for 24 hrs by ELISA analysis; type: functional; set-up: dose or concentration left out as unconfirmed
[5] = Cmax in Sprague-Dawley rat at 10 mg/kg, iv measured upto 24 hrs by LC-MS analysis; type: ADME, organism-based; details: in vivo
[6] = AUC (0 to t) in Sprague-Dawley rat at 10 mg/kg, iv measured upto 24 hrs by LC-MS analysis; type: ADME, organism-based; details: in vivo
[7] = AUC (0 to infinity) in Sprague-Dawley rat at 10 mg/kg, iv measured upto 24 hrs by LC-MS analysis; type: ADME, organism-based; details: in vivo
[8] = Tmax in Sprague-Dawley rat at 10 mg/kg, iv measured upto 24 hrs by LC-MS analysis; type: ADME, organism-based; details: in vivo
[9] = Apparent volume of distribution during terminal phase in Sprague-Dawley rat at 10 mg/kg, iv measured upto 24 hrs by LC-MS analysis; type: ADME, organism-based; details: in vivo
[10] = Apparent clearance during terminal phase in Sprague-Dawley rat at 10 mg/kg, iv measured upto 24 hrs by LC-MS analysis; type: ADME, organism-based; details: in vivo
[11] = Acute toxicity in C57BL/6 mouse assessed as change in mental state at 50 mg/kg, iv measured for 14 days; type: organism-based; details: in vivo, 336 h, time 14 day
[12] = Acute toxicity in C57BL/6 mouse assessed as change in body weight at 50 mg/kg, iv measured for 14 days; type: organism-based; details: in vivo, 336 h, time 14 day
[13] = Acute toxicity in C57BL/6 mouse assessed as change in organ index at 50 mg/kg, iv measured for 14 days; type: organism-based; details: in vivo, 336 h, time 14 day
[14] = Drug metabolism in rat plasma assessed as 5-(1-oxodithiolan-3-yl)pentyl 4-(5-isoquinolylsulfonyl)-1,4-diazepane-1-carboxylate metabolite formation at 10 mg/kg, iv; type: ADME, organism-based; details: in vivo
[15] = Drug metabolism in rat plasma assessed as 5-(1,2-dioxodithiolan-3-yl)pentyl 4-(5-isoquinolylsulfonyl)-1,4-diazepane-1-carboxylate metabolite formation at 10 mg/kg, iv; type: ADME, organism-based; details: in vivo
[16] = Drug metabolism in rat plasma assessed as 5-(1,1-dioxodithiolan-3-yl)pentyl 4-(5-isoquinolylsulfonyl)-1,4-diazepane-1-carboxylate metabolite formation at 10 mg/kg, iv; type: ADME, organism-based; details: in vivo
[17] = Cmax in Sprague-Dawley rat at 10 mg/kg, ip measured upto 24 hrs by LC-MS analysis; type: ADME, organism-based; details: in vivo
[18] = AUC (0 to t) in Sprague-Dawley rat at 10 mg/kg, ip measured upto 24 hrs by LC-MS analysis; type: ADME, organism-based; details: in vivo
[19] = AUC (0 to infinity) in Sprague-Dawley rat at 10 mg/kg, ip measured upto 24 hrs by LC-MS analysis; type: ADME, organism-based; details: in vivo
[20] = Tmax in Sprague-Dawley rat at 10 mg/kg, ip measured upto 24 hrs by LC-MS analysis; type: ADME, organism-based; details: in vivo
[21] = Apparent volume of distribution during terminal phase in Sprague-Dawley rat at 10 mg/kg, ip measured upto 24 hrs by LC-MS analysis; type: ADME, organism-based; details: in vivo, read-out: Vz/F
[22] = Apparent clearance during terminal phase in Sprague-Dawley rat at 10 mg/kg, ip measured upto 24 hrs by LC-MS analysis; type: ADME, organism-based; details: in vivo, read-out: CLz/F (converted)
[23] = Oral bioavailability in Sprague-Dawley rat at 10 mg/kg measured upto 24 hrs by LC-MS analysis; type: ADME, organism-based; details: in vivo
Mus musculus = experiment: Anti-inflammatory activity in CFA-induced acute arthritis C57BL/6 mouse model assessed as effect on foot swelling at 5 to 10 mg/kg, iv measured for 12 hrs; type: functional, organism-based; details: dose 5-10 mg/kg

SMILES | CC50 [1] | Activity [2] | inhibition (BV-2 [3]) | inhibition (BV-2 [4]) | also measured
COc1cc(/C=C/C(=O)N2CCCN(S(=O)(=O)c3cccc4c(O)nccc34)CC2)ccc1OC(C)=O | > 20 µM | 48.7% | 22.6% | 25.9% | –
O=S(=O)(c1cccc2cnccc12)N1CCN(C(c2ccccc2)c2ccccc2)CC1 | > 20 µM | 26.5% | 25.8% | inactive | –
CC1(C)C=Cc2cc(/C=C/C(=O)N3CCCN(S(=O)(=O)c4cccc5cnccc45)CC3)ccc2O1 | 64.4 µM | 33.8% | 38.5% | inactive | –
CC1(C)C=Cc2cc(/C=C/C(=O)N3CCN(S(=O)(=O)c4cccc5cnccc45)CC3)ccc2O1 | > 100 µM | 25.4% | 39.2% | inactive | –
O=S(=O)(c1cccc2cnccc12)N1CCCNCC1 [FASUDIL] | – | 99% | 30.1% | 82.6% | –
COc1cc(/C=C/C(=O)OCCCCCC2CCSS2)ccc1OC(C)=O (stereo unspecified) | > 100 µM | 26.1% | inactive | inactive | –
COc1cc(/C=C/C(=O)N2CCCN(S(=O)(=O)c3cccc4cnccc34)CC2)ccc1OCCCCCO[N+](=O)[O-] | > 100 µM | 25.3% | 34.9% | 48.5% | –
CC1(C)C=Cc2cc(C(=O)N3CCCN(S(=O)(=O)c4cccc5cnccc45)CC3)ccc2O1 | > 100 µM | 48.7% | 31.5% | inactive | –
O=C(CCCCC1CCSS1)N1CCCN(S(=O)(=O)c2cccc3c(O)nccc23)CC1 (stereo unspecified) | > 100 µM | 24.4% | inactive | inactive | –
COc1cc(/C=C/C(=O)N2CCCN(S(=O)(=O)c3cccc4cnccc34)CC2)ccc1OCCCCO[N+](=O)[O-] | > 100 µM | 20.7% | 57.5% | 36.3% | –
O=C(CCCCC1CCSS1)N1CCN(C(c2ccccc2)c2ccccc2)CC1 (stereo unspecified) | 63 µM | 50.5% | 41% | 49.6% | –
COc1cc(/C=C/C(=O)N2CCCN(S(=O)(=O)c3cccc4cnccc34)CC2)ccc1OCCCCCCO[N+](=O)[O-] | > 100 µM | 24.3% | 53.8% | 56.1% | –
CC(=O)Oc1ccc(/C=C/C(=O)N2CCCN(S(=O)(=O)c3cccc4cnccc34)CC2)cc1OC(C)=O | 44.2 µM | 82.4% | 17.8% | 22.6% | –
COc1cc(/C=C/C(=O)N2CCCN(S(=O)(=O)c3cccc4cnccc34)CC2)ccc1OC(C)=O | > 100 µM | 28.7% | inactive | inactive | –
COc1cc(/C=C/C(=O)N2CCCN(S(=O)(=O)c3cccc4cnccc34)CC2)ccc1OCCCO[N+](=O)[O-] | > 100 µM | 19.1% | 30.9% | 6.42% | –
COc1cc(/C=C/C(=O)N2CCCN(S(=O)(=O)c3cccc4cnccc34)CC2)ccc1OCCO[N+](=O)[O-] | > 100 µM | 23.9% | 45.8% | 2.78% | –
CC(=O)Oc1ccc(/C=C/C(=O)N2CCCN(S(=O)(=O)c3cccc4cnccc34)CC2)cc1 | > 100 µM | 29.2% | 49.5% | 26.3% | –
COc1cc(/C=C/C(=O)N2CCCN(S(=O)(=O)c3cccc4cnccc34)CC2)ccc1O | > 100 µM | 93% | 0.08% | inactive | –
O=S(=O)(c1cccc2cnccc12)N1CCN(C(c2ccc(F)cc2)c2ccc(F)cc2)CC1 | > 20 µM | 23.4% | inactive | inactive | –
COc1cc(/C=C/C(=O)N2CCCN(S(=O)(=O)c3cccc4cnccc34)CC2)cc(OC)c1O | > 100 µM | 90.9% | 34.5% | 0.07% | –
O=C(OCCCCCC1CCSS1)N1CCCN(S(=O)(=O)c2cccc3cnccc23)CC1 (stereo unspecified) | > 100 µM | 91.4% | 53.9% | 86.7% | Cmax [5]: 12200 ng/mL; AUC(0-t) at 24 h [6]: 1940 ng·h/mL; AUC(0-inf) [7]: 1950 ng·h/mL; Tmax [8]: 12 min; Vz/F [9]: 1.3 L/kg; CLz/F [10]: 5.6 L/h/kg; Activity [11]: Non-toxic; Activity [12]: Non-toxic; Activity [13]: Non-toxic; Drug metabolism [14]: metabolite_detected; Drug metabolism [15]: metabolite_detected; Drug metabolism [16]: metabolite_detected
CC(=O)Oc1ccccc1C(=O)OCCCCCC1CCSS1 (stereo unspecified) | 9.19 µM | 28.5% | 51.3% | 27.8% | –
COc1cc(/C=C/C(=O)N2CCCN(S(=O)(=O)c3cccc4cnccc34)CC2)cc(OC)c1OC(C)=O | > 100 µM | 22.7% | 45.9% | 35% | –
O=S(=O)(c1cccc2cnccc12)N1CCCN(C(c2ccccc2)c2ccccc2)CC1 | > 100 µM | 22.4% | inactive | inactive | –
O=C(CCCCC1CCSS1)N1CCN(C(c2ccc(F)cc2)c2ccc(F)cc2)CC1 (stereo unspecified) | > 100 µM | 92% | 70.7% | 53.8% | Cmax [17]: 9950 ng/mL; Cmax [5]: 20000 ng/mL; AUC(0-t) at 24 h [18]: 1630 ng·h/mL; AUC(0-t) at 24 h [6]: 3350 ng·h/mL; AUC(0-inf) [19]: 1660 ng·h/mL; AUC(0-inf) [7]: 3360 ng·h/mL; Tmax [20]: 4.98 min; Tmax [8]: 4.98 min; Vd/F [21]: 6.1 L/kg; Vz/F [9]: 0.7 L/kg; CL/F [22]: 102 mL/min/kg; CLz/F [10]: 2.9 L/h/kg; bioavailability [23]: 48.5%; Activity [11]: Non-toxic; Activity [12]: Non-toxic; Activity [13]: Non-toxic; Activity (Mus musculus): Active
O=C(CCCCC1CCSS1)N1CCN(S(=O)(=O)c2cccc3cnccc23)CC1 (stereo unspecified) | > 100 µM | 51.2% | 9.02% | inactive | –
O=S(=O)(c1cccc2cnccc12)N1CCCN(C(c2ccc(F)cc2)c2ccc(F)cc2)CC1 | 62 µM | 22.7% | inactive | inactive | –
